Reference: patent publication US12083115B2, “Methods for treating neurological symptoms associated with lysosomal storage diseases” (Genzyme Corporation, priority 2020, dated 2024)

What was measured:
[1] = system: healthy, human volunteers; assay: Phase 1 studies: safety profile; format: in vivo
Experimental: Compound 2 is also known as venglustat.
In all studies, safety profile was assessed by monitoring treatment-emergent adverse events (TEAEs) through 10 days after last dose of study medication, including serious adverse events [SAEs]), ECG monitoring, laboratory values, and physical examinations.

[2] = system: adult patients with Gaucher disease Type 3; assay: Clinical study in GD-3 patients: trail making test (TMT), Trail B minus Trail A time; format: in vivo, human; details: for TMT-A (s)-TMT-B (s), Average: screening 126 (n = 6)
Experimental: (§1) During the study patients were evaluated for safety and tolerability, CSF and plasma biomarkers (glucosylceramide, GL-1; glucosylsphingosine, lyso-GL1), pharmacokinetics, markers for systemic disease (spleen and liver volume measured by magnetic resonance imaging (MRI), platelet count, hemoglobin levels), indicia of interstitial lung disease (high resolution pulmonary computed tomography (CT)), and horizontal saccadic eye movement. In addition, exploratory biomarkers were quantified in CSF of GD3 patients: ceramide (the precursor of GL-1), chitotriosidase (CHITO), GM3, and GPNMB. Symptoms of ataxia were measured using the SARA scale, neurological symptoms were measured using the trail making test, and functional MRI was used to assess neural connectivity in the brain.
The trail making test (TMT) was used to evaluate cognitive function in the patients. The TMT is one of the most widely used neuropsychological tests and is included in most test batteries. The TMT is a diagnostic tool to assess general intelligence and cognitive dysfunctions (Tombaugh et al. [2004]; Cavaco et al. [2013]). In part A of the TMT (TMT-A), subjects are asked to connect a cluster of numbers in ascending order (Trail A). This task is a combination of visual search and general visual and motor processing speed. Part B (TMT-B) presents a sequence which alternates between numbers and letters (Trail B). Subjects must actively switch between both categories when connecting them in ascending, but alternating order.
TMT-A evaluates mainly perceptual and psychomotor speed. TMT-B assesses more specifically mental flexibility and shifting abilities. TMT-B minus TMT-A score is used to remove the variance attributable to the graphomotor and visual scanning components of TMT-A. This derived score reflects the unique task requirements of TMT-B.

[3] = system: GM3 expression in B16 mouse melanoma cells; assay: GM3 fluorescent-linked immunosorbent assay (FLISA), B16; format: cell-based; details: 48 hours
Text: Inhibition of glucosylceramide synthase activity can be measured with one or more assays. A first assay is a microsomal assay that directly measures the conversion of ceramide to glucosylceramide by HPLC. Microsomes are a source of glucosylceramide synthase activity in the microsomal assay. A second assay is a cell based, phenotypic assay that monitors cell surface expression of the downstream lipid GM3 by antibody mediated immunofluorescence. Specific protocols are provided below.
This is a phenotypic assay that measures GM3 expression in B16 mouse melanoma or C32 human melanoma cells following treatment with test compounds. Cell surface GM3 expression is determined by antibody mediated fluorescence.
Compounds are diluted in media and plated in 384 well plates in DMSO. B16 and C32 cells are assayed at densities of 20,000 cells/ml and 62,500 cells/ml, respectively, per well. Each titration curve contains 10 points that are assayed in duplicate on each test run. The plates are incubated for 48 hours at 37° C., 5% CO2, and are then washed once with TBS. Anti-GM3 antibody is added to each well and the plates are then incubated for an additional one hour at room temperature. Plates are subsequently washed twice and incubated for an additional hour with the labeled secondary antibody. Following the final incubation, the plates are washed twice and the fluorescence at λex=D640/20 nm and λem=657 nm is detected on a fluorescent reader.
The results of the microsomal assays are expressed as “GCS IC50,” which represents the concentration of the compound causing 50% inhibition of glucosylceramide synthase activity. The results of the cell-based assays are expressed as “GM3 B16 IC50” or “GM3 C32 IC50” for the B16 assay and the C32 assay, respectively. These values represent the concentration of the compound causing 50% inhibition of GM3 expression on the cell surface.

[4] = system: ceramide, chitotriosidase (CHITO), GM3, GPNMB in CSF; assay: Clinical study in GD-3 patients: exploratory CSF biomarkers; format: in vivo, human
Experimental: as §1
In addition, exploratory biomarkers were quantified in CSF of GD3 patients: ceramide (the precursor of GL-1), chitotriosidase (CHITO; an enzyme known to be elevated in GD patients), GM3 (a glycosphingolipid marker known to be elevated in GD patients), and GPNMB (glycoprotein nonmetastatic melanoma protein B, reportedly a biomarker of neuropathic GD3).

[5] = system: plasma GM3 (GM3 ganglioside); assay: Study 2: plasma GM3 pharmacodynamics; format: in vivo, human
Experimental: The study enrolled and randomized 36 healthy adults (19 men and 17 women) (n=9 each to group).
Pharmacodynamic endpoints (plasma GL-1, GL-3, and GM3 concentrations) were assessed on Days 1-5, 8, 11, 13, and 14, at 0 hours […]; and on Day 15, at 24 hours after the Day 14 dose.

## CC(C)(NC(=O)O[C@@H]1CN2CCC1CC2)c1csc(-c2ccc(F)cc2)n1 [Compound 2, (S)-quinuclidin-3-yl 2-(2-(4-fluorophenyl)thiazol-4-yl)propan-2-ylcarbamate]
[1]; all Phase 1 studies
  Vital signs: no relevant changes from baseline
  hematologic or biochemical abnormalities: No clinically relevant hematologic or biochemical abnormalities
[1]; all Phase 1 studies, through 10 days after last dose
  deaths, SAEs, severe TEAEs, TEAEs leading to study discontinuation: no deaths, SAEs, severe TEAEs, or TEAEs leading to study discontinuation
[1]; single ascending dose and food effect studies, multiple dose study: no statistically significant change versus placebo
  ECG parameters: no relevant changes
[2]; 52 weeks, 11 patients
  patients with positive correlation between reduction of CSF GL-1 and TMT time: 6 of 11
[2]; Patient 1, Week 26, screening 13, 15 mg/day + imiglucerase
  Trail B minus Trail A time: 21 s
[2]; Patient 1, Week 52, screening 13, 15 mg/day + imiglucerase
  Trail B minus Trail A time: 16 s
[2]; Patient 1, 15 mg/day + imiglucerase
  TMT-A (s)-TMT-B (s), Change (%) from Baseline to Week 52: +23%
[2]; Patient 2, Week 26, screening 71, 15 mg/day + imiglucerase
  Trail B minus Trail A time: 37 s
[2]; Patient 2, Week 52, screening 71, 15 mg/day + imiglucerase
  Trail B minus Trail A time: 57 s
[2]; Patient 2, 15 mg/day + imiglucerase
  TMT-A (s)-TMT-B (s), Change (%) from Baseline to Week 52: −20%
[2]; Patient 3, Week 26, screening 72, 15 mg/day + imiglucerase
  Trail B minus Trail A time: 56 s
[2]; Patient 3, Week 52, screening 72, 15 mg/day + imiglucerase
  Trail B minus Trail A time: 20 s
[2]; Patient 3, 15 mg/day + imiglucerase
  TMT-A (s)-TMT-B (s), Change (%) from Baseline to Week 52: −72%
[2]; Patient 4, Week 52, screening 116, 15 mg/day + imiglucerase
  Trail B minus Trail A time: 66 s
[2]; Patient 4, 15 mg/day + imiglucerase
  TMT-A (s)-TMT-B (s), Change (%) from Baseline to Week 52: −43%
[2]; Patient 5 (low Compound 2 exposure)
  TMT-A (s)-TMT-B (s), Change (%) from Baseline to Week 52: −3%
[2]; Patient 5 (low Compound 2 exposure), Week 26, screening 74
  Trail B minus Trail A time: 60 s
[2]; Patient 5 (low Compound 2 exposure), Week 52, screening 74
  Trail B minus Trail A time: 72 s
[2]; Patient 6, Week 26, screening 410, 15 mg/day + imiglucerase
  Trail B minus Trail A time: 440 s
[2]; Patient 6, Week 52, screening 410, 15 mg/day + imiglucerase
  Trail B minus Trail A time: 166 s
[2]; Patient 6, 15 mg/day + imiglucerase
  TMT-A (s)-TMT-B (s), Change (%) from Baseline to Week 52: −60%
[2]; Patient 7, Week 26, screening 86, 15 mg/day + imiglucerase
  Trail B minus Trail A time: 83 s
[2]; Patient 7, Week 52, screening 86, 15 mg/day + imiglucerase
  Trail B minus Trail A time: 110 s
[2]; Patient 7, 15 mg/day + imiglucerase
  TMT-A (s)-TMT-B (s), Change (%) from Baseline to Week 52: +28%
[2]; Patient 8, Week 26, screening 100, 15 mg/day + imiglucerase
  Trail B minus Trail A time: 54 s
[2]; Patient 8, Week 52, screening 100, 15 mg/day + imiglucerase
  Trail B minus Trail A time: 59 s
[2]; Patient 8, 15 mg/day + imiglucerase
  TMT-A (s)-TMT-B (s), Change (%) from Baseline to Week 52: −41%
[2]; Patient 9, Week 52, screening 59, 15 mg/day + imiglucerase
  Trail B minus Trail A time: 75 s
[2]; Patient 9, 15 mg/day + imiglucerase
  TMT-A (s)-TMT-B (s), Change (%) from Baseline to Week 52: +27%
[2]; Patient 10, Week 26, screening 73, 15 mg/day + imiglucerase
  Trail B minus Trail A time: 33 s
[2]; Patient 10, Week 52, screening 73, 15 mg/day + imiglucerase
  Trail B minus Trail A time: 6 s
[2]; Patient 10, 15 mg/day + imiglucerase
  TMT-A (s)-TMT-B (s), Change (%) from Baseline to Week 52: −92%
[2]; Patient 11, Week 26, screening 18, 15 mg/day + imiglucerase
  Trail B minus Trail A time: 48 s
[2]; Patient 11, Week 52, screening 18, 15 mg/day + imiglucerase
  Trail B minus Trail A time: 32 s
[2]; Patient 11, 15 mg/day + imiglucerase
  TMT-A (s)-TMT-B (s), Change (%) from Baseline to Week 52: +78%
[2]; Patients 1-6
  TMT-A (s)-TMT-B (s), Average Change (%) from Baseline to Week 52: −29%
[2]; Week 26, n = 5
  TMT-A (s)-TMT-B (s), Average: 123 (n = 5) s
[2]; Week 52, Excluding Patient 5
  patients exhibiting a TMT-A reduction: four of five
  patients exhibiting a TMT-B reduction: five of five
  patients exhibiting an improvement in Trail B minus Trial A: four of five
[2]; Week 52, Excluding Patient 5 (SD 37.6%)
  mean improvement in Trail B minus Trial A: −31.6%
[2]; Week 52, Excluding Patient 5 (SD 99.3 s)
  mean improvement in Trail B minus Trial A: -71.4 s
[2]; Week 52, N = 6
  patients exhibiting a reduction in the (TMT-B−TMT-A) time: 5 of 6
  patients with reduction in time taken to complete Trail A: Four of six
  patients with reduction in time taken to complete Trail B: six of six
[2]; Week 52, N = 6 (SD=55.2 s), baseline 67.8 s
  mean time taken to complete Trail A: 56.5 s
[2]; Week 52, N = 6 (SD=91.8 s), baseline 193.8 s
  mean time taken to complete Trail B: 122.7 s
[2]; Week 52, n = 6
  TMT-A (s)-TMT-B (s), Average: 66 (n = 6) s
[2]; one of the new patients, 52 weeks
  drop in the (TMT-B−TMT-A) time: 92%
[3]
  IC50: 107 µM
[4]; After 52 weeks of treatment, N = 6
  CSF concentrations of ceramide, CHITO, or GPNMB: no significant changes
[4]; four patients with measurable GM3 at baseline, at 4 weeks, 26 weeks, and 52 weeks
  GM3 in CSF: undetectable
[5]; Day 15, 5-mg dose group
  Mean plasma GM3 level, % of baseline: 42.7 % of baseline
[5]; Day 15, 10-mg dose group
  Mean plasma GM3 level, % of baseline: 49.4 % of baseline
  subjects with GM3 below the LLOQ: 1 subjects
[5]; Day 15, 20-mg dose group
  Mean plasma GM3 level, % of baseline: 57.8 % of baseline
  subjects with GM3 below the LLOQ: 2 subjects
[5]; all Compound 2 dose groups
  start day of maximal sustained GM3 decreases: 13 days
